± gives the expanded uncertainty stated by the source.
Assay: an = ratio of the nth substance listed, in mol/kg
Conditions: 101 kPa, Liquid, Vibrating tube method

C[N+](C)(C)C.[O-][Cl+3]([O-])([O-])[O-] [tetramethylammonium perchlorate] + CN(C)C=O
mass density [kg/m3]
Conditions | a1 = 0.01523 | a1 = 0.01902 | a1 = 0.02912 | a1 = 0.03309 | a1 = 0.03853 | a1 = 0.04774 | a1 = 0.05313 | a1 = 0.0674 | a1 = 0.08195 | a1 = 0.09648
283.15 K | 958.937 ± 0.27 | 959.151 ± 0.27 | 959.718 ± 0.27 | 959.941 ± 0.27 | 960.244 ± 0.27 | 960.757 ± 0.27 | 961.055 ± 0.27 | 961.841 ± 0.27 | 962.642 ± 0.27 | 963.443 ± 0.27
293.15 K | 949.438 ± 0.27 | 949.656 ± 0.27 | 950.233 ± 0.27 | 950.46 ± 0.27 | 950.768 ± 0.27 | 951.288 ± 0.27 | 951.59 ± 0.27 | 952.388 ± 0.27 | 953.2 ± 0.27 | 954.007 ± 0.27
298.15 K | 944.682 ± 0.27 | 944.901 ± 0.27 | 945.481 ± 0.27 | 945.71 ± 0.27 | 946.019 ± 0.27 | 946.545 ± 0.27 | 946.848 ± 0.27 | 947.652 ± 0.27 | 948.469 ± 0.27 | 949.284 ± 0.27
303.15 K | 939.914 ± 0.27 | 940.135 ± 0.27 | 940.72 ± 0.27 | 940.951 ± 0.27 | 941.262 ± 0.27 | 941.792 ± 0.27 | 942.097 ± 0.27 | 942.907 ± 0.27 | 943.731 ± 0.27 | 944.551 ± 0.27
313.15 K | 930.347 ± 0.26 | 930.572 ± 0.26 | 931.168 ± 0.26 | 931.402 ± 0.26 | 931.719 ± 0.26 | 932.257 ± 0.26 | 932.568 ± 0.26 | 933.392 ± 0.26 | 934.229 ± 0.26 | 935.06 ± 0.27
323.15 K | 920.732 ± 0.26 | 920.962 ± 0.26 | 921.569 ± 0.26 | 921.807 ± 0.26 | 922.13 ± 0.26 | 922.676 ± 0.26 | 922.995 ± 0.26 | 923.831 ± 0.26 | 924.679 ± 0.26 | 925.524 ± 0.26
333.15 K | 911.066 ± 0.26 | 911.299 ± 0.26 | 911.916 ± 0.26 | 912.157 ± 0.26 | 912.486 ± 0.26 | 913.042 ± 0.26 | 913.365 ± 0.26 | 914.216 ± 0.26 | 915.082 ± 0.26 | 915.939 ± 0.26

From the NIST ThermoML archive (doi:10.1016/j.jct.2005.05.008)
